How the values were obtained:
JEV T1P1 [1] = assay: Viral plaque test, JEV T1P1 replication in BHK-21 cells; format: cell-based, Japanese encephalitis virus; settings: treated for 48 or 72 hours
Description: BHK-21 cells and/or TE671cells were separately cultured in a 24-well culture plate, with an initial density of 3×10^4 per well, and with 1 ml of 2% FBS-containing MEM medium per well. The cells were incubated in an incubator (37° C., 5% CO2) overnight, and the medium was removed until the cells adhered to the plate. Then, fresh 2% FBS-containing MEM medium was simultaneously added into each well of the culture plate. The cells were infected with a JEV T1P1 virus strain, wherein the amount of JEV T1P1 used to infect BHK-21 cells was a multiplicity of infection (M.O.I.)=0.1, and the amount of JEV T1P1 used to infect TE671 cells was M.O.I.=0.05. Different concentrations of compound 1 (final concentrations were 0, 2.5, 25 and 125 μM, respectively) were added into different wells. The culture plate was placed into an incubator (37° C., 5% CO2) and maintained therein. […]
BHK-21 cells were cultured in a 6-well culture plate at an initial density of 3×10^5 per well with 2 ml of 2% FBS-containing MEM medium per well. […] The cells were washed with clear water, and then the viral plaques were counted to calculate the virus titer.

EV71 = assay: Enterovirus infection-induced cytopathic effect in RD cells; format: cell-based, enterovirus type 71; settings: infected 36 hours, M.O.I.=0.1, compound 125 μM
Description: RD cells were cultured in a 24-well culture plate at an initial density of 3×10^4 per well with 1 ml of 2% FBS-containing MEM medium per well. The cells were incubated in an incubator (37° C., 5% CO2) overnight. The medium was removed, and then 1 ml of fresh 2% FBS-containing MEM medium was simultaneously added into each well. The RD cells were infected with EV71 virus strain (M.O.I.=0.1). Different concentrations of compound 1 (final concentrations were 0, 2.5, 25 and 125 μM) were added into different wells. The RD cells were incubated in an incubator (37° C., 5% CO2) for 36 hours, and then their morphology was observed by photography.

JEV T1P1 [2] = assay: Cytopathic effect test, JEV T1P1-infected BHK-21 cells; format: cell-based, Japanese encephalitis virus
Description: BHK-21 cells and/or TE671cells were separately cultured in a 24-well culture plate, with an initial density of 3×10^4 per well, and with 1 ml of 2% FBS-containing MEM medium per well. The cells were incubated in an incubator (37° C., 5% CO2) overnight, and the medium was removed until the cells adhered to the plate. Then, fresh 2% FBS-containing MEM medium was simultaneously added into each well of the culture plate. The cells were infected with a JEV T1P1 virus strain, wherein the amount of JEV T1P1 used to infect BHK-21 cells was a multiplicity of infection (M.O.I.)=0.1, and the amount of JEV T1P1 used to infect TE671 cells was M.O.I.=0.05. Different concentrations of compound 1 (final concentrations were 0, 2.5, 25 and 125 μM, respectively) were added into different wells. The culture plate was placed into an incubator (37° C., 5% CO2) and maintained therein.
When BHK-21 cells were infected with JEV T1P1 virus strain for 48 and 72 hours as indicated in the above experiment (1), the cytopathic effect was observed by photography, while the cytopathic effect of TE671 cells was observed by photography when TE671 cells were infected with the JEV T1P1 virus strain for 36 and 48 hours. In addition, 200 μl culture medium supernatant of both cells was collected from each time point (i.e., 48 and 72 hours), thereby, providing the use for a viral plaque test in Example 4.

[3] = test system: JAK-STAT, AkT-mTOR and ERK-CREB signaling pathway-related proteins; assay: Western blot of signaling pathway phosphorylation in JEV T1P1-infected TE671 cells; format: cell-based; settings: 36 hours, 2.5-250 μM
Description: TE671cells were cultured in a 6-well culture plate at an initial density of 3×10^5 per well with 2 ml of 2% FBS-containing MEM medium per well. The cells were incubated in an incubator (37° C., 5% CO2) overnight. The medium was removed until the cells adhered to the plate. 1 ml of fresh 2% FBS-containing MEM medium was simultaneously added into each well. The cells were infected with JEV T1P1virus strain (M.O.I.=0.05). Different concentrations of compound 1 (the final concentrations were 0, 2.5, 25, 125 and 250 μM, respectively) were added into different wells. The cells were incubated in an incubator (37° C., 5% CO2) for 36 hours. The supernatant was removed, and the TE671 cells were washed with PBS. The PBS was removed, and 150 μl Trypsin-EDTA was added into each well. The cells were incubated in an incubator at 37° C. for 3 minutes. Then, 1 ml MEM medium was added into each well to neutralize EDTA, and the cells were separately collected into 15 ml tubes and precipitated by centrifugation (2000 rpm, 3 minutes). The supernatants were removed. The cells were resuspended with 1 ml PBS per tube, transferred into 1.5 ml microtubes respectively, and precipitated by centrifugation (2000 rpm, 3 minutes). The supernatants were removed and 100 μl radioimmunoprecipitation buffer (RIPA buffer) was added into each well. […]
The above protein samples were analyzed by protein electrophoresis. […]

With `CCOC(=O)C1=C(Nc2cc(C)cc(C)c2)OCC1=O` [Compound 1, ethyl 2-(3′,5′-dimethylanilino)-4-oxo-4,5-dihydrofuran-3-carboxylate] as the compound, how does the “replication of JEV T1P1 (virus titer)” value (JEV T1P1 [1]) read?
The value was “significantly decreased”.

What about the EV71-induced cytopathic effect (EV71) of the same compound?
The EV71-induced cytopathic effect was “effectively inhibited”.

And the “JEV T1P1-induced cytopathic effect” value (JEV T1P1 [2]; infected 48 hours, M.O.I.=0.1, compound 25 μM simultaneously)?
Its value is “significantly reduced”.

What about the “JEV T1P1-induced cytopathic effect” value (JEV T1P1 [2]; infected 72 hours, M.O.I.=0.1, compound 125 μM simultaneously) of the same compound?
The value was “effectively inhibited”.

What about the “phosphorylation levels of JAK-STAT, AkT-mTOR and ERK-CREB signaling pathway-related proteins” value [3] of the same compound?
The value was “increased in a concentration dependent manner”.

From US9205073B2, “Method for treating virus infection using derivative of aniline” (CHINA MEDICAL UNIVERSITY, priority 2014, dated 2015)
